Assay results as given in patent US12507703B2, “Methods, devices and compositions for preserving human milk” (The Trustees of Princeton University, priority 2023, dated 2025).
Where “and” joins values, the source holds several entries; their conditions need not be identical. Equal entries are not always repeated.

Test system: lipase
Experiment: Lipase/lipolysis assay (EnzChek Lipase Substrate, quenched BODIPY-fatty acid conjugate) on stored human milk; note: test concentration or dose not given here
Conditions: not given

Row | Compound | Lipase (RFU)
1 | COC(=O)C1=CO[C@@H](O[C@@H]2O[C@H](CO)[C@@H](O)[C@H](O)[C@H]2O)[C@H]2[C@@H]1C(=O)C[C@@H]2C [Verbenalin] | 1051.385 RFU
2 | C[S+]([O-])CCCC/C(=N\OS(=O)(=O)O)S[C@@H]1O[C@H](CO)[C@@H](O)[C@H](O)[C@H]1O (stereo partly shown) [Glucoraphanin] | 983.9092 RFU
3 | CC1=C(C/C=C(\C)CCC[C@H](C)CCC[C@H](C)CCCC(C)C)C(=O)c2ccccc2C1=O [Phylloquinone] | 1038.691 RFU
4 | O=C(O)c1cc(O)c2cccc(O)c2n1 [Xanthurenic acid] | 1023.37 RFU
5 | COc1ccc(-c2oc3c(OC)c(O)cc(O)c3c(=O)c2O)cc1 [Prudomestin] | 894.1495 RFU
6 | NC(=O)CC[C@@H]1NC(=O)[C@H](Cc2ccccc2)NC(=O)[C@H](Cc2ccc(O)cc2)NC(=O)[C@@H](N)CSSC[C@@H](C(=O)N2CCC[C@H]2C(=O)N[C@@H](CCCN=C(N)N)C(=O)NCC(N)=O)NC(=O)[C@H](CC(N)=O)NC1=O [Vasopressin] | 1150.397 RFU
7 | O=C1c2ccc(O)cc2OCC1c1ccc(O)cc1 (stereo not shown) [Dihydrodaidzein] | 682.5875 RFU
8 | O=C(c1ccccc1)C(O)c1ccccc1 (stereo not shown) [Benzoin] | 968.9971 RFU
9 | COc1cc2c(CCNC(C)=O)c[nH]c2cc1O [Compound 6-Hydroxymelatonin] | 976.0382 RFU
10 | N=C(N)NOCC[C@H](N)C(=O)O.O=S(=O)(O)O [L-Canavanine sulfate] | 903.0256 RFU
11 | C[C@@]12CCc3occc3[C@H]1CC[C@@]13C[C@@H](CC[C@H]12)[C@@](O)(CO)C3 [Cafestol] | 1003.112 RFU
12 | OC[C@H]1O[C@@H](OC[C@H]2O[C@@H](O)[C@H](O)[C@@H](O)[C@@H]2O)[C@H](O)[C@@H](O)[C@@H]1O [β-Gentiobiose] | 997.1115 RFU
13 | OC[C@H]1O[C@@](CO)(O[C@H]2O[C@H](CO)[C@@H](O)[C@H](O)[C@H]2O)[C@@H](O[C@H]2O[C@H](CO)[C@@H](O)[C@H](O)[C@H]2O)[C@@H]1O [D-Melezitose] | 1021.506 RFU
14 | COc1cc(C=O)cc(OC)c1O [Syringaldehyde] | 938.0511 RFU and 949.8732 RFU
15 | CC1(C)CCC[C@]2(C)[C@H]3CC(=O)O[C@]3(C)CC[C@@H]12 [Sclareolide] | 845.6458 RFU
16 | CC(=O)c1ccc(O)cc1 [4-Hydroxyacetophenone] | 724.0191 RFU
17 | OC[C@H]1O[C@@H](Oc2cc(O)cc(/C=C/c3ccc(O)c(O)c3)c2)[C@H](O)[C@@H](O)[C@@H]1O [Astringin] | 1052.825 RFU
18 | O=Cc1ccc[nH]1 [Pyrrole-2-carboxaldehyde] | 882.4774 RFU
19 | CCC(C)N (stereo not shown) [Sec-Butylamine] | 784.9928 RFU
20 | COc1ccc(C(=O)O)cc1OC [Veratric acid] | 944.3491 RFU
21 | CCCCCCO [Compound 1-Hexanol] | 1054.453 RFU and 1051.532 RFU
22 | COc1ccc(C[C@H]2COC(=O)[C@]2(O)Cc2ccc(O[C@@H]3O[C@H](CO)[C@@H](O)[C@H](O)[C@H]3O)c(OC)c2)cc1OC [Tracheloside] | 940.7065 RFU
23 | O=c1c(O)c(-c2ccc(O)c(O)c2)oc2cc(O)c(O)c(O)c12 [Quercetagetin] | 891.7095 RFU

Row | Compound | Lipase (RFU)
24 | COc1cc(CCCO)ccc1O [Dihydroconiferyl alcohol] | 1331.121 RFU
25 | C[C@H]1CC[C@@H](C(C)(C)O)CC2=C1CC[C@@H]2C [Guaiol] | 919.8918 RFU
26 | CC1(C)[C@@H](O)CC[C@]2(C)[C@H]3C(=O)C=C4[C@H]5C[C@@](C)(C(=O)O)CC[C@]5(C)CC[C@@]4(C)[C@]3(C)CC[C@@H]12 [18α-Glycyrrhetinic acid] | 794.4219 RFU
27 | O.O.O=c1c(O)c(-c2ccc(O)c(O)c2)oc2cc(O)cc(O)c12 [Quercetin (dihydrate)] | 1081.937 RFU
28 | Nc1nc2c(ncn2[C@H]2C[C@H](O)[C@@H](CO)O2)c(=O)[nH]1.O [2′-Deoxyguanosine monohydrate] | 782.4513 RFU
29 | C=C1[C@H]2CC[C@@H]3[C@H]2C(C)(C)CCC[C@]13C [(+)-Longifolene] | 1228.195 RFU
30 | CC(C)C12CCC(C)(CC1)O2 [1,4-Cineole] | 770.6625 RFU and 1018.049 RFU
31 | O=Cc1cc(O)c(O)c(O)c1 [Gallic aldehyde] | 942.9255 RFU
32 | O.O=C(O)c1cc(O)c(O)c(O)c1 [Gallic acid (hydrate)] | 709.0148 RFU
33 | C[C@@H]1O[C@@H](Oc2cc(O)c3c(=O)c(O)c(-c4ccc(O)cc4)oc3c2)[C@H](O)[C@H](O)[C@H]1O [Kaempferol-7-O-rhamnoside] | 963.8327 RFU
34 | CC(=O)CCc1ccc2c(c1)OCO2 [Piperonyl acetone] | 718.0889 RFU
35 | C/C(=C\CC[C@@H](C)[C@H]1CC[C@@]2(C)C3=C(CC[C@]12C)[C@@]1(C)CCC(=O)C(C)(C)[C@@H]1CC3=O)C(=O)O [Ganoderic acid DM] | 1077.482 RFU
36 | CC(C)=CCC[C@](C)(O[C@@H]1O[C@H](CO[C@@H]2OC[C@H](O)[C@H](O)[C@H]2O)[C@@H](O)[C@H](O)[C@H]1O)[C@H]1CC[C@]2(C)[C@@H]1[C@H](O)C[C@@H]1[C@@]3(C)CC[C@H](O[C@@H]4O[C@H](CO)[C@@H](O)[C@H](O)[C@H]4O[C@@H]4O[C@H](CO)[C@@H](O)[C@H](O)[C@H]4O)C(C)(C)[C@@H]3CC[C@]12C [Ginsenoside Rb2] | 872.7793 RFU
37 | O=C(O)[C@H](O)[C@@H](O)[C@H](O)[C@H](O)CO [D-Gluconic Acid] | 876.4287 RFU
38 | COc1cc(-c2[o+]c3cc(O)cc(O)c3cc2O)cc(O)c1O.[Cl-] [Petunidin (chloride)] | 1018.887 RFU
39 | OC[C@H]1O[C@H](OCC2O[C@@H](O)[C@H](O)[C@@H](O)[C@@H]2O)[C@H](O)[C@@H](O)[C@H]1O (stereo partly drawn) [D-Melibiose] | 850.0787 RFU and 747.8737 RFU
40 | C[S+](CC[C@H](N)C(=O)[O-])C[C@H]1O[C@@H](n2cnc3c(N)ncnc32)[C@H](O)[C@@H]1O.Cc1ccc(S(=O)(=O)O)cc1.O=S(=O)(O)O.O=S(=O)(O)O (stereo partly shown) | 726.0141 RFU
41 | C[n+]1cccc(C(N)=O)c1 [TRIA-662] | 1140.39 RFU
42 | O=C(O)c1ccccc1 [Benzoic Acid] | 1003.567 RFU and 1115.708 RFU and 946.6732 RFU
43 | Medicarpin | 622.3141 RFU
44 | C[C@H](CCC(=O)NCCS(=O)(=O)[O-])[C@H]1CC[C@H]2[C@@H]3[C@@H](O)C[C@@H]4C[C@H](O)CC[C@]4(C)[C@H]3CC[C@]12C.[Na+] [Tauroursodeoxycholate (sodium)] | 939.6362 RFU
45 | OC[C@H]1O[C@H](OC[C@H]2O[C@H](O[C@H]3[C@H](O)[C@@H](O)C(O)O[C@@H]3CO)[C@H](O)[C@@H](O)[C@@H]2O)[C@H](O)[C@@H](O)[C@@H]1O (stereo partly drawn) [D-Panose] | 982.4149 RFU
46 | CC1=C2[C@H]3OC(=O)[C@@H](C)[C@@H]3CC[C@@]2(C)C=CC1=O [Santonin] | 895.7689 RFU

Row | Compound | Lipase (RFU)
47 | β-D-Glucan from barley | 995.347 RFU
48 | O=C(O)c1cc(O)c2c(c1)C(=O)c1cccc(O[C@@H]3O[C@H](CO)[C@@H](O)[C@H](O)[C@H]3O)c1C2=O [Rhein 8-Glucoside] | 942.9082 RFU
49 | COc1cc(C)ccc1O [Creosol] | 835.9293 RFU and 462.1743 RFU
50 | Ginkgolic Acid | 924.5734 RFU
51 | CCCCCCCCCCCCCC(=O)OC[C@H](COP(=O)(O)OCCN)OC(=O)CCCCCCCCCCCCC | 805.4396 RFU
52 | Catechin | 945.7654 RFU
53 | O=C(O)C[C@H](O)C(=O)O [L-Malic Acid] | 1144.049 RFU
54 | OC[C@@H](O)[C@@H](O)CO [meso-Erythritol] | 838.849 RFU
55 | CC(C)(O)[C@H]1Cc2cc3ccc(=O)oc3cc2O1 [Nodakenetin] | 882.2828 RFU
56 | Oc1cc(O)c2c(c1)O[C@H](c1ccc(O)c(O)c1)[C@H](O)[C@H]2c1c(O)cc(O)c2c1O[C@H](c1ccc(O)c(O)c1)[C@H](O)C2 [Procyanidin B2] | 808.3168 RFU
57 | CC(=O)OC(C)(C)/C=C/C(=O)[C@](C)(O)[C@H]1[C@H](O)C[C@@]2(C)[C@@H]3CC=C4[C@@H](C=C(O)C(=O)C4(C)C)[C@]3(C)C(=O)C[C@]12C [Cucurbitacin E] | 641.6726 RFU
58 | COc1c(O)cc2oc3cc(O)c(CC=C(C)C)c(O)c3c(=O)c2c1CC=C(C)C [alpha-Mangostin] | 1061.941 RFU
59 | CCCCC/C=C\C/C=C\CCCCCCCC(=O)O[C@H]1CC[C@@]2(C)C(=CC[C@H]3[C@@H]4CC[C@H]([C@H](C)CCCC(C)C)[C@@]4(C)CC[C@@H]32)C1 [Cholesteryl linoleate] | 922.3562 RFU
60 | COc1ccc2c(=O)c(-c3ccc(O)cc3)coc2c1 [Isoformononetin] | 1355.098 RFU
61 | O=P(O)(O)O[C@H]1O[C@H](CO)[C@@H](O)[C@H](O)[C@H]1O [D-Glucose-1-Phosphate] | 853.7765 RFU and 929.0604 RFU
62 | O=C(O)CCCCCCCCCCCO [12-Hydroxydodecanoic acid] | 778.3097 RFU
63 | C[C@]12CCC(=O)C=C1CC[C@@H]1[C@@H]2C(=O)C[C@]2(C)C(=O)CC[C@@H]12 [Adrenosterone] | 757.5347 RFU
64 | CCCCCCCCCCCCC/C=C/[C@@H](O)[C@@H](N)CO [D-erythro-Sphingosine] | 823.3956 RFU
65 | COc1cc(OC)c2c(=O)cc(-c3ccc(OC)c(OC)c3)oc2c1 [5,7,3′,4′-Tetramethoxyflavone] | 1023.427 RFU
66 | O=C1c2ccccc2C(=O)c2cc(CO)ccc21 [2-(Hydroxymethyl)anthraquinone] | 723.6408 RFU
67 | CC(=O)c1ccccc1N [2′-Aminoacetophenone] | 970.2571 RFU
68 | O=C1C[C@@H](c2ccc(O)cc2)Oc2cc(O[C@@H]3O[C@H](CO)[C@@H](O)[C@H](O)[C@H]3O)ccc21 [Neoliquiritin] | 772.4579 RFU
69 | Gentiobiose | 1106.66 RFU

Same assay, conditions: (hydrochloride)

Row | Compound | Lipase (RFU)
70 | Cc1ncc(CO)c(CO)c1O.Cl [Pyridoxine (hydrochloride)] | 911.6428 RFU and 799.8007 RFU
